Values joined by “and” are separate entries in the source; they are usually repeats but may differ in a detail not shown here. Equal values may be shown once. Toxic doses and inconclusive results are not listed. How the source made its calls: active means survival T/C of 150% or more; inactive means T/C below 125% in these data.
Tested on: P388 leukemia ip, CD2F1 mice, survival T/C
Test: NCI In Vivo Anticancer Drug Screen. Data for tumor model P388 Leukemia (intraperitoneal) in CD2F1 (CDF1) mice
Details: endpoint: median survival time, higher = longer survival
Procedure, shortened: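 Mice carrying the transplanted tumor received test compound or vehicle. Survival was recorded in each group, and the value is the treated-group measurement divided by that of the vehicle-treated control group.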

[1] = dose: 50.0 mg/kg/injection, schedule: Q01DX005 (ip), vehicle: Klucel (hydroxypropylcellulose) (HPC)
[2] = dose: 100.0 mg/kg/injection, schedule: Q01DX005 (ip), vehicle: Klucel (hydroxypropylcellulose) (HPC)
[3] = dose: 200.0 mg/kg/injection, schedule: Q01DX005 (ip), vehicle: Klucel (hydroxypropylcellulose) (HPC)
[4] = dose: 50.0 mg/kg/injection, schedule: Q01DX009 (ip), vehicle: saline with Tween-80
[5] = dose: 100.0 mg/kg/injection, schedule: Q01DX009 (ip), vehicle: saline with Tween-80
[6] = dose: 50.0 mg/kg/injection, schedule: Q01DX005 (ip), vehicle: saline with Tween-80
[7] = dose: 60.0 mg/kg/injection, schedule: Q01DX005 (ip), vehicle: saline with Tween-80
[8] = dose: 100.0 mg/kg/injection, schedule: Q01DX005 (ip), vehicle: saline with Tween-80
[9] = dose: 120.0 mg/kg/injection, schedule: Q01DX005 (ip), vehicle: saline with Tween-80
[10] = dose: 200.0 mg/kg/injection, schedule: Q01DX005 (ip), vehicle: saline with Tween-80
[11] = dose: 240.0 mg/kg/injection, schedule: Q01DX005 (ip), vehicle: saline with Tween-80

Measured: T/C

Cc1cccc(C)c1NC(=O)CCC(=O)O
inactive: [1] 104 % of control | [2] 102 % of control | [3] 103 % of control

C=CCn1nc(-c2ccccc2)c(-c2ccccc2)n1
inactive: dose: 100.0 mg/kg/injection, schedule: Q04DX003 (ip), vehicle: saline with Tween-80 98 % of control | dose: 200.0 mg/kg/injection, schedule: Q04DX003 (ip), vehicle: saline with Tween-80 95 % of control | dose: 400.0 mg/kg/injection, schedule: Q04DX003 (ip), vehicle: saline with Tween-80 89 % of control

C[n+]1noc([O-])c1-c1ccccc1
inactive: [4] 102 % of control | [5] 104 % of control

CC1C=CC(C)S(=O)N1C(=O)Cc1ccccc1 (stereo unspecified)
inactive: dose: 60.0 mg/kg/injection, schedule: Q01DX005 (ip), vehicle: Klucel (hydroxypropylcellulose) (HPC) 100 % of control | dose: 120.0 mg/kg/injection, schedule: Q01DX005 (ip), vehicle: Klucel (hydroxypropylcellulose) (HPC) 106 % of control | dose: 240.0 mg/kg/injection, schedule: Q01DX005 (ip), vehicle: Klucel (hydroxypropylcellulose) (HPC) 113 % of control

CCc1n[nH]c(CC)c1CCCCCCOc1ccc(OC)cc1Cl
inactive: [6] 102 % of control | [7] 100 % of control | [8] 105 % of control | [9] 93 % of control | [10] 108 % of control | [11] 106 % of control

CN(C)C(=O)SC1=C(c2c(Cl)cccc2Cl)C(=O)c2ccccc21
inactive: [1] 108 % of control and 112 % of control | [2] 99 % of control and 112 % of control | [3] 121 % of control and 122 % of control

O=C1C2CC3CC1CC(Cl)(C3)C2
inactive: [6] 112 % of control | [8] 98 % of control

NC(C(=O)O)C(N)C(=O)O (stereo unspecified)
inactive: [5] 90 % of control | dose: 400.0 mg/kg/injection, schedule: Q01DX009 (ip), vehicle: saline with Tween-80 100 % of control

CCN(CC)[P+](C1=C(Cl)C(=O)C(Cl)=C(Cl)C1=O)(N(CC)CC)N(CC)CC
inactive: dose: 12.5 mg/kg/injection, schedule: Q01DX009 (ip), vehicle: saline with Tween-80 105 % of control | dose: 25.0 mg/kg/injection, schedule: Q01DX009 (ip), vehicle: saline with Tween-80 93 % of control | [4] 103 % of control

O=C1NC(=O)[C@@]2(CCOc3ccc(F)cc32)N1
inactive: [1] 95 % of control | [2] 100 % of control | [3] 100 % of control

c1cc2onc3c4cccc5onc(c(c1)c23)c54
inactive: dose: 8.75 mg/kg/injection, schedule: Q01DX005 (ip), vehicle: Klucel (hydroxypropylcellulose) (HPC) 99 % of control | dose: 17.5 mg/kg/injection, schedule: Q01DX005 (ip), vehicle: Klucel (hydroxypropylcellulose) (HPC) 93 % of control | dose: 35.0 mg/kg/injection, schedule: Q01DX005 (ip), vehicle: Klucel (hydroxypropylcellulose) (HPC) 99 % of control

O=C1c2ccsc2CN2C(=O)CCC12 (stereo unspecified)
inactive: [7] 95 % of control | [9] 103 % of control | [11] 110 % of control

CCCCCCCCCCCCCCCn1nnnc1N
inactive: [6] 86 % of control | [8] 91 % of control | [10] 96 % of control

Cc1nc2nnc(N)n2nc1C
inactive: dose: 100.0 mg/kg/injection, schedule: Q04DX003 (ip), vehicle: Klucel (hydroxypropylcellulose) (HPC) 106 % of control | dose: 200.0 mg/kg/injection, schedule: Q04DX003 (ip), vehicle: Klucel (hydroxypropylcellulose) (HPC) 97 % of control | dose: 400.0 mg/kg/injection, schedule: Q04DX003 (ip), vehicle: Klucel (hydroxypropylcellulose) (HPC) 96 % of control

CCOC(=O)N1C=CC(=C2C(=C3C=CN(C(=O)OCC)C=C3)C(=C3C=CN(C(=O)OCC)C=C3)C2=C2C=CN(C(=O)OCC)C=C2)C=C1
inactive: dose: 25.0 mg/kg/injection, schedule: Q01DX005 (ip), vehicle: saline with Tween-80 100 % of control | [6] 101 % of control and 102 % of control and 117 % of control | [8] 100 % of control and 105 % of control and 109 % of control | [10] 99 % of control

Cc1ccccc1/C=N\N1C(=O)C(C)SC1c1ccccc1C (stereo unspecified)
inactive: [4] 91 % of control | [5] 93 % of control

Cc1ccc(NC(=O)NCCCCCCNC(=O)Nc2ccc(C)cc2)cc1
inactive: [7] 96 % of control | [9] 94 % of control | [11] 106 % of control
